The values that follow come from patent US9677051B2, “Erythroid production” (The Common Services Agency, priority 2012, dated 2017).

“Also recorded” adds a separate entry of the source.

The test system of test [1] is human pluripotent stem cells (hPSC). Kind of test: erythroid differentiation culture of hPSCs, overall cell amplification. The class given is cell-based. The note with it: for cell amplification, combination of GSK3β inhibitor and IBMX: GSK3 inhibitor combined with IBMX; for quality and quantity of erythrocytic cells produced: GSK3β inhibitor day 0 to day 3, used along with Wnt3a; for replacement of recombinant Wnt3A by GSK3β inhibitor: added during day 0 to day 3 of the differentiation protocol; for potency: concentration of GSK3β inhibitor: early stage of differentiation; for overall amplification of differentiating erythropoietic cultures, side by side comparison: Table 1, addition of GSK3β inhibitors, IBMX or both; for expansion in cell number / yield of differentiated cells: prolonged treatment d0 to d5, iPSC or hESC; for rate of cell amplification in the late stage of the method: SR1 1 μM at day 5, SC1 500 nM at day 14 and 250 nM at day 16. How it is done:
(§1) The human pluripotent stem cells (hPSC) are maintained undifferentiated in Stempro medium (Life Technologies) on Cellstart (Life Technologies) and passaged approximately every 7 days, depending on their confluence, using the EZpassage tool (Life Technologies).
(§2) For differentiation, confluent hPSC are cut into squares with the EZpassage tool (Life Technologies) and plated at 500×10^3/well on Ultra low adherence six well plates (Corning) in 3 ml/well of Stemline II (Sigma) to allow them to form embryoid bodies (EBs).
(§3) On day 0 in order to induce differentiation, the following cytokines are added: Bone Morphogenic Protein 4 (BMP4) (10 ng/ml), Vascular Endothelium Growth Factor 165 (VEGF) (10 ng/ml), Wnt3A (and/or Wnt5A) (10 ng/ml), ActivinA (5 ng/ml) and Inhibitor VIII (2 μM). GSK3 Inhibitor VIII is a specific name for the Merck product (361549), it is also called AR-A014418 or N-(4-Methoxybenzyl)-N′-(5-nitro-1,3-thiazol-2-yl)urea
(§4) On day 2 of differentiation (48 hours old EBs), a new set of cytokines is added in 0.5 ml/well of Stemline II; BMP4 (20 ng/ml), VEGF (30 ng/ml), Wnt3A (and/or Wnt5A) (10 ng/ml), ActivinA (5 ng/ml), Inhibitor VIII (2 μM), Fibroblast Growth Factor α (FGFα) (10 ng/ml), Stem Cell Factor (SCF) (20 ng/ml) and β-Estradiol (0.4 ng/ml).
(§5) NB: Given cytokine concentrations are always the final concentrations of freshly added cytokines—e.g. when cells are fed rather than undergoing complete media change, we add 0.5 ml of 6× cytokines to 2.5 ml already in well to give final total volume of 3 ml with 1× cytokines.
On day 3 of differentiation the EBs are washed in PBS then dissociated using 1 ml/well TrypleSelect 10λ for 10 minutes at 37° C. After addition of 10 ml of PBS, cells are centrifuged for 3 minutes at 1200 rpm, the supernatant is discarded and the cells are resuspended in 3 ml fresh Stemline II and replated at 200×10^3/well of a regular six well tissue culture plate with the following cytokines: BMP4 (20 ng/ml), VEGF (30 ng/ml), FGFα (10 ng/ml), SCF (30 ng/ml), Insulin-like Growth Factor 2 (IGF2) (10 ng/ml), Thrombopoietin (TPO) (10 ng/ml), Heparin (5 ug/ml), Iso Butyl Methyl Xanthine (IBMX) 50 μM and β-Estradiol (0.4 ng/ml).
On day 5 of differentiation a fresh set of cytokines identical to day 3 is added in 0.5 ml/well of Stemline II such that final concentrations of fresh cytokines are those stated for day 3.
On day 7 of differentiation the cells are harvested, centrifuged 3 minutes at 1200 rpm and resuspended in fresh Stemline II medium supplemented with the same set of cytokines as day 3. If the number of cells is above 500×10^3, it is advisable to split the culture as any drastic depletion or major pH increase of the medium can have major repercussion on the differentiation efficiency.
From day 7 to day 10 of differentiation the cell density should be closely monitored in order to maintain the cell number under 10^6 per ml by adding fully supplemented media and splitting into additional wells if required.
On day 9 of differentiation a half dose of day 3 cytokines is added in 0.5 ml/well of Stemline II such that final concentrations of fresh cytokines are half those stated for day 3.
On day 10 of differentiation, the cells are centrifuged 3 minutes at 1200 rpm then re-plated in erythroid liquid culture conditions. i.e. the cells are plated at a density of 100×10^3 cells/well in 3 ml/well of Stemline II supplemented with the following cytokines: Hydrocortisone 10^−6M, SCF (50 ng/ml), Flt3-Ligand (Flt3L) (16.7 ng/ml), BMP4 (6.7 ng/ml), Interleukin 3 (IL3) (6.7 ng/ml), IL11 (6.7 ng/ml), IBMX (50 μM) and Erythropoietin (EPO) 1.3 U/ml.
From day 10 to day 17 (short protocol) or 21 (extended A phase protocol), the above cytokines are renewed every 2 days, added in 0.5 ml of Stemline II, such that final concentrations of fresh cytokines are those stated for day 10. […]

Test [2] has as its system genes involved in erythropoiesis. Description: qRT-PCR (Taqman) of genes involved in erythropoiesis in differentiating hPSCs. The class given is cell-based, human. The note with it: for expression of globin genes and other markers of definitive hematopoiesis (HBA, HBG, HBB, Runx1, Gata2, HoxB4) and erythropoiesis genes (HOXA9, CD36, NFE2) / necessary reduction in pluripotent markers: hiPSC or hESC, Inhibitor VIII and IBMX; for key molecular markers, mRNA expression: iPSC, InhVIII+IBMX, day 0, 10, 17 and 24. An excerpt:
At days 0, 10, 17 and 24 the expression of selected genes of interest by the differentiating cells was monitored by qRT-PCR (Taqman) The gene panel was selected to comprise genes known to be expressed at various stages of erythropoiesis in order to evaluate the degree of differentiation of the hPSCs.

Test [3] deals with differentiating hPSCs. Description: morphology of differentiating cells, Rapid Romanovski staining of cytospin preparations. The class given is cell-based, human. The note with it: for sturdiness of cells, proneness to lysis: SR1 at day 5, SC1 at days 14 and 16. How it is done:
At day 17 onward, the erythroid stage of the cells was determined assessment of morphology after Rapid Romanovski staining of cytospin preparations.

The test system of test [4] is globins. Kind of test: HPLC analysis of globin protein expression profile of differentiated hPSCs. The note with it: full differentiation process in presence of both GSK3β inhibitor and IBMX. It is filed as cell-based, human. Here is the method: At day 24, 28 or onward the globin protein expression profile was analysed by High Pressure Liquid Chromatography to evaluate the level of switch from primitive to definitive hematopoiesis.

Test [5] has as its system hESC line H1. Description: erythroid differentiation culture of hESC line H1. The class given is cell-based, human. As to conditions: H1 ESC differentiation. Here is the method: as §1, §2
(§6) On day 0 in order to induce differentiation, the following cytokines are added: Bone Morphogenic Protein 4 (BMP4) (10 ng/ml), Vascular Endothelium Growth Factor 165 (VEGF) (10 ng/ml), Wnt3A (and/or Wnt5A) (10 ng/ml), ActivinA (5 ng/ml) and Inhibitor VIII (2 μM). GSK3 Inhibitor VIII is a specific name for the Merck product (361549), it is also called AR-A014418 or N-(4-Methoxybenzyl)-N′-(5-nitro-1,3-thiazol-2-yl)urea […]
(§7) From day 7 to day 10 of differentiation the cell density should be closely monitored in order to maintain the cell number under 10^6 per ml by adding fully supplemented media and splitting into additional wells if required. […]

The subject of test [6] is RC9. Description: erythroid differentiation culture of hESC line RC9. The class given is cell-based, human. As to conditions: RC9 cell line. How it is done:
as §1, §2, §6, §7

Test [7] concerns iPSC. Kind of test: erythroid differentiation culture of iPSC. It is filed as cell-based, human. Here is the method: as §1, §2, §3, §4, §5
On day 3 of differentiation the EBs are washed in PBS then dissociated using 1 ml/well TrypleSelect 10λ for 10 minutes at 37° C. […]
as §7

Take `O=C1Nc2cc(Br)ccc2/C1=C1/Nc2ccccc2/C1=N\O` [BiO]: the “cell amplification, combination of GSK3β inhibitor and IBMX” value in test [1] is given as “does not have this effect”.

As to `Cc1c[nH]c(-c2cnc(NCCNc3ccc(C#N)cn3)nc2-c2ccc(Cl)cc2Cl)n1` [CHIR99021], in test [1], the “cell amplification, combination of GSK3β inhibitor and IBMX” value is on record as “synergistic”; the “quality and quantity of erythrocytic cells produced” value is recorded as “marked improvement”; the “replacement of recombinant Wnt3A by GSK3β inhibitor” value is recorded as “could not reproducibly replace Wnt3a”; the “potency: concentration of GSK3β inhibitor” value was found to be 0.2 µM. Further, the “effect on hESC versus hiPSC lines” value in test [1] (compared to Inhibitor VIII) is reported as “stronger effect on hESC than hiPSC lines”.

Take `CC(C)Cn1c(=O)n(C)c(=O)c2[nH]cnc21` [IBMX, 3-isobutyl-1-methylxanthine]: in test [1], the “cell amplification, combination of GSK3β inhibitor and IBMX” value was “synergetic effect on cell amplification”; the “overall amplification of differentiating erythropoietic cultures, side by side comparison” value is “inconsistency. Results consistently show a positive effect of Inhibitor VIII and IBMX. The gain provided by a prolonged”. For the same molecule, the “expansion, cumulative fold amplification over time” value in test [1] (H1 (hESC) or hiPSC, combinations of GSK3β inhibitors and IBMX) is listed as “further increases expansion”. Moreover, the “cell numbers in the culture” value in test [1] (IBMX added to culture) was “can increase cell numbers”. Further, in test [1] (added to culture medium throughout day 3 and 17), the “stage of addition inducing maximum amplification” value is “most effective”. In test [2], the “expression of globin genes and other markers of definitive hematopoiesis (HBA, HBG, HBB, Runx1, Gata2, HoxB4) and erythropoiesis genes (HOXA9, CD36, NFE2)” value was “increase expression”; the “necessary reduction in pluripotent markers” value is “do not affect”; the “key molecular markers, mRNA expression” value is recorded as “Increase key molecular markers”. In addition, the “cells morphology and maturation” value in test [3] (addition of IBMX and GSK3β inhibitors, compared to the control culture conditions) is listed as “did not have any negative effect”. In test [3] (combination of GSK3β inhibitor and IBMX), the “morphological appearance of cells” value was “morphologically more intact and robust”. In test [4], the HPLC globin profile result is on record as “almost similar to the cells of fetal origin”.

As to `COc1ccc(CNC(=O)Nc2ncc([N+](=O)[O-])s2)cc1` [Inhibitor VIII, N-(4-methoxybenzyl)-N′-(5-nitro-1,3-thiazol-2-yl)urea], in test [1], the “cell amplification, combination of GSK3β inhibitor and IBMX” value is recorded as “synergistic”; the “quality and quantity of erythrocytic cells produced” value is listed as “marked improvement”; the “overall amplification of differentiating erythropoietic cultures, side by side comparison” value was “inconsistency. Results consistently show a positive effect of Inhibitor VIII and IBMX. The gain provided by a prolonged”; the “replacement of recombinant Wnt3A by GSK3β inhibitor” value was “could not reproducibly replace Wnt3a”. For the same molecule, in test [1], the “potency: concentration of GSK3β inhibitor” value is 2 µM and the “expansion in cell number / yield of differentiated cells” value is “increases the yield of differentiated cells”. In addition, the “total fold amplification of erythroid differentiation culture” value in test [1] (absence or presence of inhibitor VIII, hESC lines RC9 and H1, iPS line) is on record as “increases cell numbers in multiple lines”. Further, the “expansion in cell number / yield of differentiated cells” value in test [1] (listed as InhVIII) is reported as “increases the expansion in cell number”. For the same molecule, in test [5], the “replacement of Activin A” value is listed as “can replace Activin A”. Moreover, the “replacement of Activin A” value in test [6] is on record as “wasn't observed”. In addition, in test [7] (iPSC G cell line), the “replacement of Activin A” value is on record as “wasn't observed”. Besides, in test [2], the “expression of globin genes and other markers of definitive hematopoiesis (HBA, HBG, HBB, Runx1, Gata2, HoxB4) and erythropoiesis genes (HOXA9, CD36, NFE2)” value is listed as “increase expression”; the “necessary reduction in pluripotent markers” value is listed as “do not affect”; the “key molecular markers, mRNA expression” value was “Increase key molecular markers”.

For the molecule `Cc1cc(Nc2ncc3c(n2)N(C)C(=O)N(c2cc(NC(=O)c4cccc(C(F)(F)F)c4)ccc2C)C3)n(C)n1` [SC1], the “rate of cell amplification in the late stage of the method” value in test [1] is “greater rate of cell amplification; also recorded: enhances or increases the rate of cell amplification”. The “sturdiness of cells, proneness to lysis” value in test [3] is “sturdier and less prone to lysis; also recorded: more “sturdy” and less prone lysis”.

With `CC(C)n1cnc2c(NCCc3ccc(O)cc3)nc(-c3csc4ccccc34)nc21` [SR1], the “rate of cell amplification in the late stage of the method” value in test [1] was “greater rate of cell amplification; also recorded: enhances or increases the rate of cell amplification”. Besides, the “sturdiness of cells, proneness to lysis” value in test [3] was “sturdier and less prone to lysis; also recorded: more “sturdy” and less prone to lysis”.

B1: Activin A: cytokine added at 5 ng/ml in the early stage of differentiation (protein, UniProt P08476 311-426, looked up)
Inhibin beta A chain: GLECDGKVNICCKKQFFVSFKDIGWNDWIIAPSGYHANYCEGECPSHIAGTSGSSLSFHSTVINHYRMRGHSPFANLKSCCVPTKLRPMSMLYYDDGQNIIKKDIQNMIVEECGCS
With B1, the “effect of an increased dose on differentiation” value in test [1] (data not shown) is “doesn't have any beneficial effect”. The “differentiation efficiency in the absence of Activin A” value in test [6] and in test [7] (iPSC G cell line) was “markedly hinders the differentiation efficiency” each time. For the same molecule, the “requirement for efficient differentiation” value in test [7] (iPSC) is reported as “required for efficient differentiation”.
